# The supplement of paper PMC11208160
# Experiment: recombinant UMI read abundance after kanamycin selection (control-corrected) (log10(CPM+1)); higher = more efficient recombination; extreme values may be limits of the assay; sequences stand for … in AGTGCAGAGAAAATCGGCCAGTTTTCTCTGCCTGCAGTCCGCATGCCGTGGGACCCCTTGGGTTCTAACCTGTTGCCTAGATTTATGCAGCGGACTGCCTTTCTCCCAAAGTGATAAACCGG…AGGTTGGTTTCACT; site = the 11-nt donor
# How it was run: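 Under IPTG (0.07 mM) plus kanamycin, or without selection, Escherichia coli carrying a UMI-tagged donor and donor-binding-loop pair library and a target plasmid for the IS621 bridge recombinase were plated in two replicates. Recombinant UMIs were PCR-amplified across the donor–target junction and sequenced. Counts were converted to CPM, averaged over replicates, scaled by control-derived factors and reported as log10(CPM+1).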
# 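Further: IS621 bridge recombinase in Escherichia coli cells against a fixed T5 target plasmid.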
row,Sequence,recombinant UMI read abundance (log10)
1,AGCCTATCATGGACCGGTTTTCCCGGTAATCCGTATTTGAC (site AGCCTGTCTGT),0
2,AGCCTATCATGGACCGGTTTTCCCGGTAATCCGTATTTGAC (site AGCCTTTCTGT),0
3,AGCCTTTCATGGACCGGTTTTCCCGGTAATCCGTATTTGAT (site AGCCTTTCTAT),0
4,AGCCTTTCATGGACCGGTTTTCCCGGTAATCCGTATTTGAT (site AGCCTTTCTCT),0
5,AGCCTTTCATGGACCGGTTTTCCCGGTAATCCGTATTTGAT (site AGCCTTTCTGT),0
6,AGCCTTTCATGGACCGGTTTTCCCGGTAATCCGTATTTGAT (site AGCCTTTCTTT),0
7,AGCGCGACATGGACCGGTTTTCCCGGTAATCCGTATTTGTG (site AGCGCGACTCA),0.829
8,AGCGCTCCATGGACCGGTTTTCCCGGTAATCCGTATTTGCC (site AGCGCTCCTGG),0
9,AGCGGCTCATGGACCGGTTTTCCCGGTAATCCGTATTTGGG (site AGCGGCTCTCC),0.204
10,AGCTAAGCATGGACCGGTTTTCCCGGTAATCCGTATTTGGG (site AGCTAAGCTCC),0.00725
11,AGCTAAGCATGGACCGGTTTTCCCGGTAATCCGTATTTGGG (site AGCTCAGCTCC),0.0056
12,AGCTAAGCATGGACCGGTTTTCCCGGTAATCCGTATTTGGG (site AGCTGAGCTCC),0.0394
13,AGCTAAGCATGGACCGGTTTTCCCGGTAATCCGTATTTGGG (site AGCTTAGCTCC),0.117
14,AGCTACGCATGGACCGGTTTTCCCGGTAATCCGTATTTGAA (site AGCTACGCTTT),1.7
15,AGCTAGCCATGGACCGGTTTTCCCGGTAATCCGTATTTGGA (site AGCTAGCCTTC),0.00495
16,AGCTAGGCATGGACCGGTTTTCCCGGTAATCCGTATTTGGT (site AGCTAGGCTAC),0.659
17,AGCTAGGCATGGACCGGTTTTCCCGGTAATCCGTATTTGGT (site CGCTAGGCTAC),0.00222
18,AGCTAGGCATGGACCGGTTTTCCCGGTAATCCGTATTTGGT (site GGCTAGGCTAC),0.0154
19,AGCTAGGCATGGACCGGTTTTCCCGGTAATCCGTATTTGGT (site TGCTAGGCTAC),0.0219

row,Sequence,recombinant UMI read abundance (log10)
1,AGCTCACCATGGACCGGTTTTCCCGGTAATCCGTATTTGGG (site AGCTCAACTCC),0.0175
2,AGCTCACCATGGACCGGTTTTCCCGGTAATCCGTATTTGGG (site AGCTCACCTCC),0.0182
3,AGCTCACCATGGACCGGTTTTCCCGGTAATCCGTATTTGGG (site AGCTCAGCTCC),0.0165
4,AGCTCACCATGGACCGGTTTTCCCGGTAATCCGTATTTGGG (site AGCTCATCTCC),0
5,AGCTCAGCATGGACCGGTTTTCCCGGTAATCCGTATTTGAG (site AGCTCAGCTCA),0.0132
6,AGCTCAGCATGGACCGGTTTTCCCGGTAATCCGTATTTGAG (site AGCTCAGCTCC),0.026
7,AGCTCAGCATGGACCGGTTTTCCCGGTAATCCGTATTTGAG (site AGCTCAGCTCG),0
8,AGCTCAGCATGGACCGGTTTTCCCGGTAATCCGTATTTGAG (site AGCTCAGCTCT),1.33
9,AGCTCAGCATGGACCGGTTTTCCCGGTAATCCGTATTTGGA (site AGCTCAGCTAC),0.00904
10,AGCTCAGCATGGACCGGTTTTCCCGGTAATCCGTATTTGGA (site AGCTCAGCTCC),0.264
11,AGCTCAGCATGGACCGGTTTTCCCGGTAATCCGTATTTGGA (site AGCTCAGCTGC),0
12,AGCTCAGCATGGACCGGTTTTCCCGGTAATCCGTATTTGGA (site AGCTCAGCTTC),1.03
13,AGCTCAGCATGGACCGGTTTTCCCGGTAATCCGTATTTGTG (site AGCTCAGCTCA),0.506
14,AGCTCAGCATGGACCGGTTTTCCCGGTAATCCGTATTTGTG (site AGCTCAGCTCC),0.00732
15,AGCTCAGCATGGACCGGTTTTCCCGGTAATCCGTATTTGTG (site AGCTCAGCTCG),0
16,AGCTCAGCATGGACCGGTTTTCCCGGTAATCCGTATTTGTG (site AGCTCAGCTCT),0.362
17,AGCTCGACATGGACCGGTTTTCCCGGTAATCCGTATTTGGC (site AGCTCGACTGC),1.31
18,AGCTCTGCATGGACCGGTTTTCCCGGTAATCCGTATTTGGG (site AGCTCAGCTCC),0.0199
19,AGCTCTGCATGGACCGGTTTTCCCGGTAATCCGTATTTGGG (site AGCTCCGCTCC),0.0101

row,Sequence,recombinant UMI read abundance (log10)
1,AGCTCTGCATGGACCGGTTTTCCCGGTAATCCGTATTTGGG (site AGCTCGGCTCC),0
2,AGCTCTGCATGGACCGGTTTTCCCGGTAATCCGTATTTGGG (site AGCTCTGCTCC),0.25
3,AGCTTAGCATGGACCGGTTTTCCCGGTAATCCGTATTTGTT (site AGCATAGCTAA),0.00999
4,AGCTTAGCATGGACCGGTTTTCCCGGTAATCCGTATTTGTT (site AGCCTAGCTAA),0.261
5,AGCTTAGCATGGACCGGTTTTCCCGGTAATCCGTATTTGTT (site AGCGTAGCTAA),0.0147
6,AGCTTAGCATGGACCGGTTTTCCCGGTAATCCGTATTTGTT (site AGCTTAGCTAA),0.0106
7,AGCTTCCCATGGACCGGTTTTCCCGGTAATCCGTATTTGGG (site AGCTTCCCTCC),0.0229
8,AGCTTGCCATGGACCGGTTTTCCCGGTAATCCGTATTTGAT (site AGCTTGCCTAT),0.0115
9,AGGAAGACATGGACCGGTTTTCCCGGTAATCCGTATTTGAC (site AGGAAGACTGT),2.64
10,AGGAAGACATGGACCGGTTTTCCCGGTAATCCGTATTTGAC (site AGGAAGACTTG),0.571
11,AGGAAGACATGGACCGGTTTTCCCGGTAATCCGTATTTGCC (site AGGAAGACTAG),0.42
12,AGGAAGACATGGACCGGTTTTCCCGGTAATCCGTATTTGCC (site AGGAAGACTCG),0.723
13,AGGAAGACATGGACCGGTTTTCCCGGTAATCCGTATTTGCC (site AGGAAGACTGG),1.84
14,AGGAAGACATGGACCGGTTTTCCCGGTAATCCGTATTTGCC (site AGGAAGACTTG),1.8
15,AGGAAGACATGGACCGGTTTTCCCGGTAATCCGTATTTGGT (site AGGAAGACTAC),2.1
16,AGGAAGACATGGACCGGTTTTCCCGGTAATCCGTATTTGGT (site AGGAAGACTTG),0
17,AGGAAGCCATGGACCGGTTTTCCCGGTAATCCGTATTTGCC (site AGGAAGACTTG),0
18,AGGAAGCCATGGACCGGTTTTCCCGGTAATCCGTATTTGCC (site AGGAAGCCTGG),0
19,AGGAATACATGGACCGGTTTTCCCGGTAATCCGTATTTGCA (site AGGAAAACTTG),0.656
